Experiments:
[1] = system: MOLM-14 D835Y (endogenous FLT3 ITD and transfected FLT3 D835Y); assay: MOLM-14 D835Y cell proliferation assay (CellTiter-Glo); format: cell-based; conditions: Homo sapiens, MOLM-14, 72 h; 3 d growth, GMean
Summary of the method: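 MOLM-14 derivatives carrying D835Y or F691L, selected under escalating AC220, were seeded at 1×10^4 cells/well and exposed to an 8-point 1:3 compound series (1 to 0.00046 μM, 0.2% DMSO final) for three days at 37° C., 5% CO2. CellTiter-Glo luminescence (ATP content) versus concentration gave IC50.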

BA/F3-FLT3-ITD + D835Y = molecular target: T1, BA/F3-FLT3-ITD + D835Y (Homo sapiens, UniProt P36888, D835Y, cells depend on it, form not given); assay: Engineered BA/F3 cell growth assay, FLT3 ITD/D835Y; format: cell-based, murine; conditions: 3 d growth
T1 sequence (P36888 with tags, fused parts or gaps INS600HVDFREYEYD/D835Y): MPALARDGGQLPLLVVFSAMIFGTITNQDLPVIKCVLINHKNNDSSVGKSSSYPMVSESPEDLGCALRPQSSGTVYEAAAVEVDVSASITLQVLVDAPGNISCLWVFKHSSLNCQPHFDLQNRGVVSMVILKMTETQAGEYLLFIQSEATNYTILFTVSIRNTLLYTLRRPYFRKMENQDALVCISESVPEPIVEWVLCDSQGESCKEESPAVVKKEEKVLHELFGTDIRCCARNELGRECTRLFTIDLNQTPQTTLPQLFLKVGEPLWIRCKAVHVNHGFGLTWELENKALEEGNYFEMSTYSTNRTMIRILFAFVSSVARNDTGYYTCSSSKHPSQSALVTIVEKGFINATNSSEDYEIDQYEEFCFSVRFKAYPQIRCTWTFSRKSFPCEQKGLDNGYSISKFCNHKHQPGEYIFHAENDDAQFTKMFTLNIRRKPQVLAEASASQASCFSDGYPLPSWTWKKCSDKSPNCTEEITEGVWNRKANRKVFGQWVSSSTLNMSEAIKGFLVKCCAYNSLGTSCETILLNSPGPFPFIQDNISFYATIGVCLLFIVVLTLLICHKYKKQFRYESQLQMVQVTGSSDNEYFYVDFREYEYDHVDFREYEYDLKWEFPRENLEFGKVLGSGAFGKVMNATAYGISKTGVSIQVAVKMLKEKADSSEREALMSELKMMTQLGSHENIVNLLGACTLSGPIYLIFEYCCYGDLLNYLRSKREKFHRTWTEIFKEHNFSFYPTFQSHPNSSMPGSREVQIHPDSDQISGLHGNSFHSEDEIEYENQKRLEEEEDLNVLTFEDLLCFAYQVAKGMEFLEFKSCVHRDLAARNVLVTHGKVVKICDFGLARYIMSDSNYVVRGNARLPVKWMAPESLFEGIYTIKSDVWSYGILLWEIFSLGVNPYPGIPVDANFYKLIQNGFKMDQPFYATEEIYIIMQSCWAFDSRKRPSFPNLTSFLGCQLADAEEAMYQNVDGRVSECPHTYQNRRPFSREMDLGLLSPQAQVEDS
Summary of the method: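 Murine Ba/F3 cells transfected with full-length FLT3 ITD/D835Y, grown without IL-3 so growth depends on FLT3. Seeded at 1×10^4 cells/well, 8-point 1:3 series to 1 μM top (0.2% DMSO), 3 days at 37 °C. CellTiter-Glo luminescence (ATP) versus concentration gave IC50.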

CSF1R = CSF1R (Homo sapiens, UniProt P07333); assay: CSF1R 100 ATP 8 pt kinase assay (Table 6); format: biochemical
From the text: The following Table 6 provides data indicating FLT3 ITD, D835Y and F691L; c-KIT and CSF1R biochemical and/or cell inhibitory activity for exemplary compounds as described herein.

Chain of CSF1R (P07333 20-972, species assumed): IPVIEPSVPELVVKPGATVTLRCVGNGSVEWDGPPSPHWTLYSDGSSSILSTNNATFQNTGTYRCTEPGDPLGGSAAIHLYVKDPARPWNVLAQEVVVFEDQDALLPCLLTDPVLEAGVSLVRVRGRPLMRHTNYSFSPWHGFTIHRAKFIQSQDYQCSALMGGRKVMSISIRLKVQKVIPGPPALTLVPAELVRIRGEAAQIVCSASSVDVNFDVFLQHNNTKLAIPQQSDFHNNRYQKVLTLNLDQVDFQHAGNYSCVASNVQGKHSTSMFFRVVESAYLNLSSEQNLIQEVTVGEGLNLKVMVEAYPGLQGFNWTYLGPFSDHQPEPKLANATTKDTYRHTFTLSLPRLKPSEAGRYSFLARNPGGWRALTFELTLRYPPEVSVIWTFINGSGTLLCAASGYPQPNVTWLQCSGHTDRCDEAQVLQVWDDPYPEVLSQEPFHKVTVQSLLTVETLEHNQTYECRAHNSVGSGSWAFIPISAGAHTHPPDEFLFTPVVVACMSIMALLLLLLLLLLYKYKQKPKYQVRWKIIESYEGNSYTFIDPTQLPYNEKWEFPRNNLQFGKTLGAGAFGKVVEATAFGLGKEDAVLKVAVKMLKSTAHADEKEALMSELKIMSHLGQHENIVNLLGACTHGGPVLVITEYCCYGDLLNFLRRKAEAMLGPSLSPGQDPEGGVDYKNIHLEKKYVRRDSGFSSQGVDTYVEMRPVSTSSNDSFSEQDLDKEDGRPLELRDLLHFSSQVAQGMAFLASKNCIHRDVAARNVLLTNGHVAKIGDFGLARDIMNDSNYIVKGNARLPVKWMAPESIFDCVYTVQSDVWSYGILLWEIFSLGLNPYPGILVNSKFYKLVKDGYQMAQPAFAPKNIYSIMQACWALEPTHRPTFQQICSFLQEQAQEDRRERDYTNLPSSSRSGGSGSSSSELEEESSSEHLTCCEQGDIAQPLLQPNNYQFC

| Structure (SMILES) | IC50 [1] [µM] | GI50 (BA/F3-FLT3-ITD + D835Y) [µM] | IC50 (CSF1R) [µM] |
| --- | --- | --- | --- |
| CCC(=O)c1c[nH]c2ncc(-c3ccc(CC(=O)Nc4cnc(C)c(C(F)(F)F)c4)c(F)c3)cc12 [Compound P-0070, 2-[2-fluoro-4-(3-propanoyl-1H-pyrrolo[2,3-b]pyridin-5-yl)phenyl]-N-[6-methyl-5-(trifluoromethyl)-3-pyridyl]acetamide] | 0.0001 to 10 | 0.0001 to 10 | 0.0001 to 10 |
| O=C(Cc1ccc(-c2cnc3[nH]nc(C4CC4)c3c2)cc1F)Nc1cncc(C(F)(F)F)c1 [Compound P-0072, 2-[4-(3-cyclopropyl-1H-pyrazolo[3,4-b]pyridin-5-yl)-2-fluoro-phenyl]-N-[5-(trifluoromethyl)-3-pyridyl]acetamide] | 0.0001 to 10 | 0.0001 to 10 | 0.0001 to 10 |
| O=C(Cc1ccc(-c2cnc3[nH]nc(C4CC4)c3c2)cc1)Nc1cncc(C(F)(F)F)c1 [Compound P-0073, 2-[4-(3-cyclopropyl-1H-pyrazolo[3,4-b]pyridin-5-yl)phenyl]-N-[5-(trifluoromethyl)-3-pyridyl]acetamide] | 0.0001 to 10 | 0.0001 to 10 | 0.0001 to 10 |
| Cn1cnc(Nc2ncc(-c3cc(F)c(CC(=O)Nc4cncc(C(F)(F)F)c4)cc3F)cn2)c1 [Compound P-0078, 2-(2,5-difluoro-4-(2-((1-methyl-1H-imidazol-4-yl)amino)pyrimidin-5-yl)phenyl)-N-(5-(trifluoromethyl)pyridin-3-yl)acetamide] | 0.0001 to 10 | 0.0001 to 10 |  |
| Cc1ncc(NC(=O)Cc2ccc(-c3cnc4[nH]cc(Cl)c4n3)cc2)cc1C(F)(F)F [Compound P-0079, 2-(4-(7-chloro-5H-pyrrolo[2,3-b]pyrazin-2-yl)phenyl)-N-(6-methyl-5-(trifluoromethyl)pyridin-3-yl)acetamide] | 0.0001 to 10 | 0.0001 to 10 |  |
| Cn1cc(Nc2ncc(-c3ccc(CC(=O)Nc4cncc(C5CC5)c4)c(F)c3)cn2)cn1 [Compound P-0081, N-(5-cyclopropyl-3-pyridyl)-2-[2-fluoro-4-[2-[(1-methylpyrazol-4-yl)amino]pyrimidin-5-yl]phenyl]acetamide] | 0.0001 to 10 | 0.0001 to 10 |  |
| Cn1cc(Nc2ncc(-c3ccc(CC(=O)Nc4cc(C(F)(F)F)ccn4)c(F)c3)cn2)cn1 [Compound P-0082, 2-[2-fluoro-4-[2-[(1-methylpyrazol-4-yl)amino]pyrimidin-5-yl]phenyl]-N-[4-(trifluoromethyl)-2-pyridyl]acetamide] | 0.0001 to 10 | 0.0001 to 10 |  |
| Cn1cc(Nc2ncc(-c3ccc(CC(=O)Nc4ccnc(C(F)(F)F)c4)c(F)c3)cn2)cn1 [Compound P-0083, 2-[2-fluoro-4-[2-[(1-methylpyrazol-4-yl)amino]pyrimidin-5-yl]phenyl]-N-[2-(trifluoromethyl)-4-pyridyl]acetamide] | 0.0001 to 10 | 0.0001 to 10 |  |
| Cn1cc(Nc2ncc(-c3ccc(CC(=O)Nc4cncc(C(F)(F)F)c4)c(F)c3)cn2)cn1 [Compound P-0084, 2-[2-fluoro-4-[2-[(1-methylpyrazol-4-yl)amino]pyrimidin-5-yl]phenyl]-N-[5-(trifluoromethyl)-3-pyridyl]acetamide] | 0.0001 to 10 | 0.0001 to 10 |  |
| COc1cncc(NC(=O)Cc2ccc(-c3cnc(Nc4cnn(C)c4)nc3)cc2F)c1 [Compound P-0086, 2-[2-fluoro-4-[2-[(1-methylpyrazol-4-yl)amino]pyrimidin-5-yl]phenyl]-N-(5-methoxy-3-pyridyl)acetamide] | 0.0001 to 10 | 0.0001 to 10 |  |
| Cn1cc(Nc2ncc(-c3ccc(CC(=O)NCc4ccc(C(F)(F)F)nc4)c(F)c3)cn2)cn1 [Compound P-0087, 2-[2-fluoro-4-[2-[(1-methylpyrazol-4-yl)amino]pyrimidin-5-yl]phenyl]-N-[[6-(trifluoromethyl)-3-pyridyl]methyl]acetamide] | 0.0001 to 10 | 0.0001 to 10 |  |
| Cn1cc(Nc2ncc(-c3ccc(CC(=O)NCc4ccccn4)c(F)c3)cn2)cn1 [Compound P-0088, 2-[2-fluoro-4-[2-[(1-methylpyrazol-4-yl)amino]pyrimidin-5-yl]phenyl]-N-(2-pyridylmethyl)acetamide] | 0.0001 to 10 | 0.0001 to 10 |  |
| COc1ncc(NC(=O)Cc2ccc(-c3cnc(Nc4cnn(C)c4)nc3)cc2F)cc1C(F)(F)F [Compound P-0089, 2-[2-fluoro-4-[2-[(1-methylpyrazol-4-yl)amino]pyrimidin-5-yl]phenyl]-N-[6-methoxy-5-(trifluoromethyl)-3-pyridyl]acetamide] | 0.0001 to 10 | 0.0001 to 10 |  |
| Cn1cc(Nc2ncc(-c3ccc(CC(=O)Nc4cncc(C(C)(F)F)c4)c(F)c3)cn2)cn1 [Compound P-0090, N-[5-(1,1-difluoroethyl)-3-pyridyl]-2-[2-fluoro-4-[2-[(1-methylpyrazol-4-yl)amino]pyrimidin-5-yl]phenyl]acetamide] | 0.0001 to 10 | 0.0001 to 10 |  |

From US10160747B2, “Compounds and methods for kinase modulation, and indications therefor” (Plexxikon Inc., priority 2016, dated 2018)
